Data on 3 molecules can be found in PMC4056445 (Journal of ethnopharmacology, 2011).

Each structure is given as a SMILES string. Some results are limits rather than exact numbers.

In one assay the target is PDE5 (Mus musculus, UniProt Q8CG03). Nature of the assay: PDE5 inhibition, two-step radioactive [3H]cGMP assay. The class given is biochemical. As to conditions: for IC50 ratio PDE6/PDE5: pure compounds, selectivity on PDE5 over PDE6.
The next assay concerns the target T1, PDE6 (Gallus gallus, UniProt P52731).
T1 sequence (P52731 1-859 limits assumed): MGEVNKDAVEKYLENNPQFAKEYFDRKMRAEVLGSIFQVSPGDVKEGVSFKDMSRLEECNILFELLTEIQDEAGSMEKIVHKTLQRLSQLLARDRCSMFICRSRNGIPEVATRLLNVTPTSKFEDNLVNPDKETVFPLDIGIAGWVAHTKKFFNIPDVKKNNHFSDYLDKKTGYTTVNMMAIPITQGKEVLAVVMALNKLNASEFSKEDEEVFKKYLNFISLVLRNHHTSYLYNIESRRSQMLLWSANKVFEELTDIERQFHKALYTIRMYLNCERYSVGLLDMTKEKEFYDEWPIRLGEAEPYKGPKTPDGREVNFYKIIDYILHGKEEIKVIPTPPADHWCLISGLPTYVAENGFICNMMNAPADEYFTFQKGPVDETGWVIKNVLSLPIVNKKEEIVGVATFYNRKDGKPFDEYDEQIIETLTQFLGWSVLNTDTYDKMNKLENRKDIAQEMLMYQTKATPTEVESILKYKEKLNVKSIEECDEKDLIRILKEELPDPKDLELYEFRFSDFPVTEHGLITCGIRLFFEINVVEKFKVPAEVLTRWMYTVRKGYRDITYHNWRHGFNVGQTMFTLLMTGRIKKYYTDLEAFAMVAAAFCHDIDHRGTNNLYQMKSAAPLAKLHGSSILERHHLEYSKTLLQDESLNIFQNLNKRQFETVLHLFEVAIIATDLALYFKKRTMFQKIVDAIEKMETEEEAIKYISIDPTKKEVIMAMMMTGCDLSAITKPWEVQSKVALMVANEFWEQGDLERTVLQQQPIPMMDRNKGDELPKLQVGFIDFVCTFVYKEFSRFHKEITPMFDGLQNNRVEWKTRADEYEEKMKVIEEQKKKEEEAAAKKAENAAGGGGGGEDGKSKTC
Nature of the assay: PDE6 inhibition, two-step radioactive [3H]cGMP assay. The class given is biochemical, chicken.

Turning to `COc1cc(OC)c2c(=O)cc(-c3ccccc3)oc2c1` [Compound 2, 5,7-dimethoxyflavone], the figures for the IC50 on PDE5 and on PDE6 were 10600 ± 2090 nM and 39500 ± 1000 nM, respectively. The “IC50 ratio PDE6/PDE5” value at PDE5 is 3.71. Moreover, the inhibition at 10 µM was more than 35% at PDE5 (read-out: % Inhibitory activity at 10 μM PDE5, final concentration 10 μM, n = 3) and more than 35% on PDE6 (read-out: % Inhibitory activity at 10 μM PDE6, final concentration 10 μM, n = 3).
For the molecule `CCCc1nn(C)c2c(=O)[nH]c(-c3cc(S(=O)(=O)N4CCN(C)CC4)ccc3OCC)nc12` [Sildenafil, sildenafil], the IC50 on PDE5 was determined as 6.8 nM; on PDE6, 33 ± 10 nM. For the same molecule, the “IC50 ratio PDE6/PDE5” value on PDE5 was determined as 4.85.
Turning to `OCCN(CCO)c1nc(N2CCCCC2)c2nc(N(CCO)CCO)nc(N3CCCCC3)c2n1` [Dipyridamole, dipyridamole], the IC50 worked out at 1460 ± 810 nM on PDE5 and 231 ± 30 nM at PDE6.
